Like-named read-outs stand apart in the source and are kept apart here.
Key:
c-Kit(V654A) = c-Kit(V654A) (Homo sapiens, UniProt P10721, V654A); experiment: c-Kit(V654A) assay; format: biochemical
In short: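 Radiometric filter-binding read-out: after 3% phosphoric acid stop, peptide-incorporated 33P on filtermat scintillation-counted. Enzyme: human c-Kit V654A, residues 544–end, N-terminal GST fusion.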

[1] = biological target: mutant cKIT (560-576 and V654A) in GIST430/654 cell line (Homo sapiens (Human), UniProt P10721, DEL560-576/V654A); experiment: Cellular testing of cKIT mutant inhibitors: phospho-Y307-cKIT Luminex assay in GIST430/654 cells; format: cell-based; conditions: read-out: GIST 430/654 IC50
In short: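 GIST430/654 cells carrying constitutively active cKIT (Δ560-576/V654A) were grown with 100 nM imatinib, then treated with serially diluted compound for 45 min. Lysates were captured on anti-total-cKIT Luminex beads overnight at 4 °C and probed for phospho-Y307-cKIT. IC50 was fitted from percent of 0.3% DMSO control.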

[2] = Table 1, cKIT autophosphorylation, compounds 45 min
[3] = Table 2, corresponding triazole derivatives

mutant cKIT (560-576 and V654A) in GIST430/654 cell line, sequence (P10721 other isoform, or with tags, fused parts or gaps V654A/del 1-25/del 560-576 limits assumed): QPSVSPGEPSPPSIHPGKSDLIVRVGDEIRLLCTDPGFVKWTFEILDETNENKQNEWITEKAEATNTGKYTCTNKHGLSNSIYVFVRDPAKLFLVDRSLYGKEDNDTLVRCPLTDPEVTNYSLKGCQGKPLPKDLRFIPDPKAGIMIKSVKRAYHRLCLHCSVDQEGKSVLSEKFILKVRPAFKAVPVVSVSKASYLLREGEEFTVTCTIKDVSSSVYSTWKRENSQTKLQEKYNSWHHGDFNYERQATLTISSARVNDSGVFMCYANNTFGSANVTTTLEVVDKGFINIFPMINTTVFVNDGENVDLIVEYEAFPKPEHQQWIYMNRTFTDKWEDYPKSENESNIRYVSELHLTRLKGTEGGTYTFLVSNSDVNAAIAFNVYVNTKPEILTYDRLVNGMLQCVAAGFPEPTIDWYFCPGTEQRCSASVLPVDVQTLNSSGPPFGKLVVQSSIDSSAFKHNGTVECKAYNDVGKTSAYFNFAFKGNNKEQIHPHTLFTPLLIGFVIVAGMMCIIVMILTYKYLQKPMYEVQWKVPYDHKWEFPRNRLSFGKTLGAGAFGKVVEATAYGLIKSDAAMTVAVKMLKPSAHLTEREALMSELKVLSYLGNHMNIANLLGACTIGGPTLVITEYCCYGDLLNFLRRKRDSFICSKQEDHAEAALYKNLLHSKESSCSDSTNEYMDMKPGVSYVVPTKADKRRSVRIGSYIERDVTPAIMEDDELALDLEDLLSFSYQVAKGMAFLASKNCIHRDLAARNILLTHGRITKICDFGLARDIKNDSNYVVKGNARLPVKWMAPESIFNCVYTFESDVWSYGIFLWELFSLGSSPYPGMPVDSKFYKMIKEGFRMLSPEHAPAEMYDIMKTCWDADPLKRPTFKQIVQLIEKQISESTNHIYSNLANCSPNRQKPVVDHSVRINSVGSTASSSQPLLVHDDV

| SMILES | IC50 (c-Kit(V654A); Table 1, 200 μM ATP) [nM] | IC50 [1, 2] [nM] | IC50 (c-Kit(V654A); [3]) [nM] | IC50 [1, 3] [nM] |
| --- | --- | --- | --- | --- |
| COCCOc1cc2[nH]nc(-c3cc(-c4ccc(C(=O)N(C)C5CC5)cc4)no3)c2cc1F [A31, N-cyclopropyl-4-{5-[5-fluoro-6-(2-methoxyethoxy)-1H-indazol-3-yl]-1,2-oxazol-3-yl}-N-methylbenzamide] | 1.1 | 35 | – | – |
| COCCOc1cc2[nH]nc(-c3cc(-c4ccc(C(=O)N5CCCOCC5)cc4)no3)c2cc1F [A44, 5-fluoro-6-(2-methoxyethoxy)-3-{3-[4-(1,4-oxazepane-4-carbonyl)phenyl]-1,2-oxazol-5-yl}-1H-indazole] | 1.1 | 41 | – | – |
| COCCOc1cc2[nH]nc(-c3cc(-c4ccc(C(=O)N5C6COCC5C6)cc4)no3)c2cc1F [A182, 5-fluoro-6-(2-methoxyethoxy)-3-[3-(4-{3-oxa-6-azabicyclo[3.1.1]heptane-6-carbonyl}phenyl)-1,2-oxazol-5-yl]-1H-indazole] | 0.94 | 38 | – | – |
| COCCOc1cc2[nH]nc(-c3cc(-c4ccc(S(=O)(=O)N(C)C)cc4)no3)c2cc1F [A144, 4-{5-[5-fluoro-6-(2-methoxyethoxy)-1H-indazol-3-yl]-1,2-oxazol-3-yl}-N,N-dimethylbenzene-1-sulfonamide] | 3.2 | 1900 | – | – |
| COCCOc1cc2[nH]nc(-c3cc(-c4ccc(C(=O)N5CC[C@H]5C(C)(C)O)cc4)on3)c2cc1F [A148, (4-{3-[5-fluoro-6-(2-methoxy-ethoxy)-1H-indazol-3-yl]-isoxazol-5-yl}-phenyl)-[(S)-2-(1-hydroxy-1-methyl-ethyl)-azetidin-1-yl]-methanone] | 1.8 | 70 | – | – |
| COCCOc1cc2[nH]nc(-c3cc(-c4ccc(C(=O)N5C[C@H]6CC(=O)N[C@H]6C5)cc4)no3)c2cc1F (relative stereo) [A203, (cis)-5-(4-{5-[5-fluoro-6-(2-methoxyethoxy)-1H-indazol-3-yl]-1,2-oxazol-3-yl}benzoyl)-octahydropyrrolo[2,3-c]pyrrol-2-one] | 1.4 | 560 | – | – |
| COCCOc1cc2[nH]nc(-c3cc(-c4ccc(N5CC[C@H]6[C@@H]5CCN6C)cc4)no3)c2cc1F (relative stereo) [A125, 3-(3-{4-[(cis)-4-methyl-octahydropyrrolo[3,2-b]pyrrol-1-yl]phenyl}-1,2-oxazol-5-yl)-5-fluoro-6-(2-methoxyethoxy)-1H-indazole] | 1.9 | 230 | – | – |
| COCCOc1cc2[nH]nc(-c3cc(-c4ccc(C(=O)N(C)CCS(C)(=O)=O)cc4)no3)c2cc1F [A150, 4-{5-[5-fluoro-6-(2-methoxyethoxy)-1H-indazol-3-yl]-1,2-oxazol-3-yl}-N-(2-methanesulfonylethyl)-N-methylbenzamide] | 1.7 | 110 | – | – |
| COCCOc1cc2[nH]nc(-c3cc(-c4ccc(C(=O)N5CCN([C@H]6CCOC6)CC5)cc4)no3)c2cc1F [A186, 5-fluoro-6-(2-methoxyethoxy)-3-[3-(4-{4-[(3S)-oxolan-3-yl]piperazine-1-carbonyl}phenyl)-1,2-oxazol-5-yl]-1H-indazole] | 1.1 | 48 | – | – |
| COCCOc1cc2[nH]nc(-c3cc(-c4ccc(C(=O)N5CCN(C(CO)CO)CC5)cc4)no3)c2cc1F [A228, 2-[4-(4-{5-[5-fluoro-6-(2-methoxyethoxy)-1H-indazol-3-yl]-1,2-oxazol-3-yl}benzoyl)piperazin-1-yl]propane-1,3-diol] | 570 | 470 | – | – |
| COCCOc1cc2[nH]nc(-c3cc(-c4ccc(C(=O)N5CC(N6CCO[C@H](C)C6)C5)cc4)no3)c2cc1F [A211, 5-fluoro-6-(2-methoxyethoxy)-3-[3-(4-{3-[(2R)-2-methylmorpholin-4-yl]azetidine-1-carbonyl}phenyl)-1,2-oxazol-5-yl]-1H-indazole] | 1.3 | 39 | – | – |
| COCCOc1cc2[nH]nc(-c3cc(-c4ccc(C(=O)N5CC(N6CC7(COC7)C6)C5)cc4)no3)c2cc1F [A187, 5-fluoro-6-(2-methoxyethoxy)-3-f{3-[4-(3-f{2-oxa-6-azaspiro[3.3]heptan-6-yl}azetidine-1-carbonyl)phenyl]-1,2-oxazol-5-yl}-1H-indazole] | 1.4 | 290 | – | – |
| COCCOc1cc2[nH]nc(-c3cc(-c4ccc(C(=O)N5CCC[C@@H]5C(C)(C)O)nc4)no3)c2cc1F [A109, (5-{5-[5-fluoro-6-(2-methoxy-ethoxy)-1H-indazol-3-yl]-isoxazol-3-yl}-pyridin-2-yl)-[(R)-2-(1-hydroxy-1-methyl-ethyl)-pyrrolidin-1-yl]-methanone] | 9.1 | 430 | – | – |
| COCCOc1cc2[nH]nc(-c3cn(-c4ccc(C(=O)N5CC(C#N)C5)cc4)nn3)c2cc1F [reference compound] | – | – | 13 | 2200 |

Second part, the compound after the results:

| IC50 (c-Kit(V654A); Table 1, 200 μM ATP) [nM] | IC50 [1, 2] [nM] | IC50 (c-Kit(V654A); [3]) [nM] | IC50 [1, 3] [nM] | SMILES |
| --- | --- | --- | --- | --- |
| 0.45 | 14 | – | – | COCCOc1cc2[nH]nc(-c3cc(-c4ccc(C(=O)N5CC(c6cccnc6)C5)cc4)no3)c2cc1F [A192, 5-fluoro-6-(2-methoxyethoxy)-3-(3-{4-[3-(pyridin-3-yl)azetidine-1-carbonyl]phenyl}-1,2-oxazol-5-yl)-1H-indazole] |
| 0.54 | 38 | – | – | COCCOc1cc2[nH]nc(-c3cc(-c4ccc(C(=O)N5C[C@H]6C[C@@H]5CO6)cc4)no3)c2cc1F [A163, 5-fluoro-6-(2-methoxyethoxy)-3-(3-{4-[(1R,4R)-2-oxa-5-azabicyclo[2.2.1]heptane-5-carbonyl]phenyl}-1,2-oxazol-5-yl)-1H-indazole] |
| 0.65 | 44 | – | – | COCCOc1cc2[nH]nc(-c3cc(-c4ccc(C(=O)N5C[C@@H]6C[C@H]5CO6)cc4)no3)c2cc1F [A162, 5-fluoro-6-(2-methoxyethoxy)-3-(3-{4-[(1S,4S)-2-oxa-5-azabicyclo[2.2.1]heptane-5-carbonyl]phenyl}-1,2-oxazol-5-yl)-1H-indazole] |
| 0.9 | 170 | – | – | [2H]C1([2H])N(C(=O)c2ccc(-c3cc(-c4n[nH]c5cc(OCCO)c(F)cc45)on3)cc2)C([2H])([2H])C([2H])([2H])N(C2COC2)C1([2H])[2H] [A234, 2-{[5-fluoro-3-(3-{4-[4-(oxetan-3-yl)(2,2,3,3,5,5,6,6-^2H8)piperazine-1-carbonyl]phenyl}-1,2-oxazol-5-yl)-1H-indazol-6-yl]oxy}ethan-1-ol] |
| 0.83 | 46 | – | – | COCCOc1cc2[nH]nc(-c3cc(-c4ccc(C(=O)N5CCC(N6CCOCC6)C5)cc4)no3)c2cc1F (centres unmarked) [A153, 5-fluoro-6-(2-methoxyethoxy)-3-(3-{f4-[3-(morpholin-4-yl)pyrrolidine-1l-carbonyl]phenyl}-1,2-oxazol-5-yl)-1H-indazole] |
| 0.89 | 54 | – | – | COCCOc1cc2[nH]nc(-c3cc(-c4ccc(C(=O)N5CC(c6ccncn6)C5)cc4)no3)c2cc1F [A172, 5-fluoro-6-(2-methoxyethoxy)-3-(3-{4-[3-(pyrimidin-4-yl)azetidine-1-carbonyl]phenyl}-1,2-oxazol-5-yl)-1H-indazole] |
| 0.91 | 56 | – | – | COCCOc1cc2[nH]nc(-c3cc(-c4ccc(C(=O)N5CCOC[C@H]5C)cc4)no3)c2cc1F [A114, 5-fluoro-6-(2-methoxyethoxy)-3-(3-{4-[(3R)-3-methylmorpholine-4-carbonyl]phenyl}-1,2-oxazol-5-yl)-1H-indazole] |
| 0.44 | 23 | – | – | COCCOc1cc2[nH]nc(-c3cc(-c4ccc(C(=O)N5CCC6(CCOC6)C5)cc4)no3)c2cc1F (centres unmarked) [A157, 7-(4-{5-[5-fluoro-6-(2-methoxyethoxy)-1H-indazol-3-yl]-1,2-oxazol-3-yl}benzoyl)-2-oxa-7-azaspiro[4.4]nonane] |
